Measurements: ChEMBL document CHEMBL4229418, “Design, synthesis and pharmacology of aortic-selective acyl-CoA: Cholesterol O-acyltransferase (ACAT/SOAT) inhibitors” (Bioorg Med Chem, 2018)

What was measured:
[1] = target: T1, Sterol O-acyltransferase 1 (Mus musculus, UniProt Q61263); assay: Inhibition of ACAT1 in mouse J774 cells assessed as reduction in esterified cholesterol accumulation after 18 hrs in presence of 25-hydroxycholesterol; format: cell-based
T1 sequence (Q61263 whole entry): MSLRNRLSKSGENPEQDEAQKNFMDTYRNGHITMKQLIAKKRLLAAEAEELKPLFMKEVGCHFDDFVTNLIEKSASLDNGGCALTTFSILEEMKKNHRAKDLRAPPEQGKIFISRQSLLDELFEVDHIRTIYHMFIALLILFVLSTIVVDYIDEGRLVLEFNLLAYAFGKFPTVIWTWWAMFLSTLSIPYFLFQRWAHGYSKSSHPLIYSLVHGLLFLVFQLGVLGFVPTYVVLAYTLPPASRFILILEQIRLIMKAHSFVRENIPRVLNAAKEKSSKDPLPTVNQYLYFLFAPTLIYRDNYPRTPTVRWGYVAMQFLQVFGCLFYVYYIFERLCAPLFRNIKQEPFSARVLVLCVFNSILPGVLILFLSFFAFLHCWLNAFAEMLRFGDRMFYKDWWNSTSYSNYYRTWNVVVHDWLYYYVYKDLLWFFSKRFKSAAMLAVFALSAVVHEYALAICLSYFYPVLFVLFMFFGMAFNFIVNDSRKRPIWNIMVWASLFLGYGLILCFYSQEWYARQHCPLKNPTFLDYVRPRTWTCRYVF

Oryctolagus cuniculus = species on record: Oryctolagus cuniculus; assay: Selectivity ratio of IC50 for inhibition of SOAT2 in New Zealand white rabbit intestinal microsomes to IC50 for inhibition of SOAT1 in arterial homogenates isolated from 1% cholesterol fed New Zealand white rabbit
[2] = Inhibition of SOAT2 in New Zealand white rabbit intestinal microsomes assessed as reduction in cholesteryl oleate formation incubated for 5 mins in presence of [14C]-oleoyl-CoA and BSA complex by TLC method; set-up: species or system Oryctolagus cuniculus, Intestine
[3] = Inhibition of SOAT1 in arterial homogenates isolated from 1% cholesterol fed New Zealand white rabbit assessed as reduction in cholesteryl oleate formation incubated for 5 mins in presence of [14C]-oleoyl-CoA and BSA complex by TLC method; format: tissue-based, Oryctolagus cuniculus

Row | SMILES | IC50 [1] [nM] | IC50 [2] [nM] | IC50 [3] [nM] | Ratio IC50 (Oryctolagus cuniculus)
1 | CC(C)c1cccc(C(C)C)c1NC(=O)CCCCSc1nc2ccccc2[nH]1 | 5200 | 430 | 390 | 1.1
2 | CC(C)c1cccc(C(C)C)c1NC(=O)CCCCCSc1nc2cccc(CO)c2o1 | 2200 | 110 | 56 | 2
3 | CC(=O)Nc1c(C(C)C)cccc1C(C)C |  |  | 8600 | 
4 | CC(C)c1cccc(C(C)C)c1NC(=O)CCCCCSc1nc2cc(N(C)C)ccc2o1 | 500 | 250 | 43 | 5.8
5 | CC(C)c1cccc(C(C)C)c1NC(=O)CCCCCSc1nc2cc(C(=O)O)ccc2o1 | 11000 | 4500 | 3600 | 1.3
6 | CC(C)c1cccc(C(C)C)c1NC(=O)CSc1nc2ccccc2s1 | 180 | 47 | 31 | 1.5
7 | CC(C)c1cccc(C(C)C)c1NC(=O)CCCCCSc1nc2ccncc2o1 | 4100 | 160 | 41 | 3.9
8 | CC(C)c1cccc(C(C)C)c1NC(=O)CSc1nc2ccccc2[nH]1 | 180 | 5800 | 2300 | 2.5
9 | CC(C)c1cccc(C(C)C)c1NC(=O)CCCCCSc1nc2cc(CN(C)C)ccc2o1 | 1800 | 170 | 250 | 0.7
10 | CC(C)c1cccc(C(C)C)c1NC(=O)CCCCCSc1nc2cnccc2o1 | 2800 | 150 | 45 | 3.3
11 | CC(C)c1cccc(C(C)C)c1NC(=O)CSc1nc2ccccc2o1 |  | 200 | 35 | 5.7
12 | CC(C)c1cccc(C(C)C)c1NC(=O)CCCSc1nc2ccccc2[nH]1 | 3100 | 800 | 300 | 2.7
13 | CCCCCC(=O)Nc1c(C(C)C)cccc1C(C)C |  |  | 170 | 
14 | CCCCSc1nc2ccccc2o1 |  |  | 26000 | 
15 | CC(C)c1cccc(C(C)C)c1NC(=O)CCCCCSc1nc2cc(C(F)(F)F)ccc2o1 | 100 | 140 | 28 | 5
16 | CC(C)c1cccc(C(C)C)c1NC(=O)CCCCCSc1nc2cc(O)ccc2o1 | 2800 | 120 | 43 | 2.8
17 | CC(C)c1cccc(C(C)C)c1NC(=O)CCCCCSc1nc2cccc(CN(C)C)c2o1 | 5600 | 130 | 96 | 1.4
18 | CC(C)c1cccc(C(C)C)c1NC(=O)CCCCCSc1nc2ccc(CO)cc2o1 | 7000 | 180 | 76 | 2.4
19 | CC(C)c1cccc(C(C)C)c1NC(=O)CCCCCCCCCCCCCCSc1nc2ccccc2[nH]1 | 1700 | 44 | 120 | 0.4
20 | CC(C)c1cccc(C(C)C)c1NC(=O)CCCCCSc1nc2c(CN(C)C)cccc2o1 |  | 320 | 42 | 7.6

Stronger by IC50 [3], values ahead:

Row | IC50 [1] [nM] | IC50 [2] [nM] | IC50 [3] [nM] | SMILES | Ratio IC50 (Oryctolagus cuniculus)
21 | 5200 | 33 | 26 | CC(C)c1cccc(C(C)C)c1NC(=O)CCCCCSc1nc2ccccc2s1 | 1.3
22 | 350 | 38 | 26 | CC(C)c1cccc(C(C)C)c1NC(=O)CCCCCSc1nc2ccccc2[nH]1 | 1.5
23 |  |  | 15 | CC(C)c1cccc(C(C)C)c1NC(=O)CCSc1nc2ccccc2o1 | 
24 | 1100 | 94 | 15 | CC(C)c1cccc(C(C)C)c1NC(=O)CCCCCSc1nc2ccc(N(C)C)cc2o1 | 6.3
25 | 1900 | 65 | 10 | CC(C)c1cccc(C(C)C)c1NC(=O)CCCCCSc1nc2ccccc2o1 | 6.5
26 | 59 | 36 | 7 | CC(C)c1cccc(C(C)C)c1NC(=O)CCCCCCCSc1nc2ccccc2s1 | 5.1
27 | 100 | 14 | 6 | CC(C)c1cccc(C(C)C)c1NC(=O)CCCCCCCCCSc1nc2ccccc2o1 | 2.3
28 |  | 30 | 5 | CC(C)c1cccc(C(C)C)c1NC(=O)CCCCCCSc1nc2ccccc2o1 | 6
